{"source": "patent US11147798B2", "about": "“Use of carbamate compound for prevention, alleviation, or treatment of demyelinating disease” (SK BIOPHARMACEUTICALS CO., LTD., priority 2016, dated 2021)", "key": {"[1]": {"tested_on": "Experimental Autoimmune Encephalomyelitis (EAE) model", "assay": "Pattern retinal conduction (pERG) amplitude in the EAE model", "assay_type": "in vivo, female C57BL/6 mice", "settings": "for Pattern retinal conduction amplitude (pERG amplitude), Mean ± SEM: measured 28 days after induction", "protocol": "(§1) For this experiment, female C57BL/6 mice were purchased from Janvier Labs of France and were maintained under conditions of temperature (22±1° C.), a light-and-darkness cycle of 12 hours and free access to water and food according to the protocol approved and investigated by the Animal Experiment Committee of Finland. All animals were kept isolated for a week after purchase and had time to adapt to the kennel. 11-week-old animals were used in the experiment. According to the criteria of the Animal Experiment Committee of Finland, in the case of a weight loss of 20% or more compared to the starting point, a degree of disease progression (clinical score) of 4 or more, or a failure in the righting reflex test in clinical score of 3, the experiment was stopped and animals were sacrificed for humanitarian purposes.\n(§2) To induce EAE, an inoculum was purchased from Hooke Laboratories of the United States: the inoculum contains 100 μg of MOG35-55 peptide and 200 μg of heat-inactivated Mycobacterium tuberculosis, both dissolved in 100 μl of mineral oil. 100 μl of the inoculum was injected subcutaneously into both high and low parts of the back of mice. 100 μl pertussis toxin was injected into the peritoneum of the mice twice, two hours after inoculation and after 24 hours.\nThe test compound was dissolved in distilled water containing 30% polyethylene glycol 400 (PEG 400) and treated with an ultrasonic sonicator for 30 minutes. […]\nPattern retinal conduction was measured two days before and 28 days after EAE induction. […] After performing the test, the results were analyzed using Matlab software (MathWorks, Natick, Mass.).\n(§3) Quantitative data were graphed (plotted) and analyzed using Prism software version 7 (GraphPad Software Inc. La Jolla, Calif.), the data were expressed as mean±standard deviation or standard error of mean. Comparisons with the vehicle group were analyzed using a t-test, and when the significance (p value) was less than 0.05, it was judged as a statistically significant difference."}, "[2]": {"tested_on": "Experimental Autoimmune Encephalomyelitis (EAE) model", "assay": "Systemic motor symptom alleviation (EAE clinical score) in an Experimental Autoimmune Encephalomyelitis (EAE) model", "assay_type": "in vivo, male C57BL/6 mice", "settings": "for EAE clinical score: mean±SEM", "protocol": "For this experiment, male C57BL/6 mice were purchased from Orient Bio, Inc. of Korea. The mice were placed in a wire mesh cage under conditions of ambient temperature of 20 to 24° C., relative humidity of 55 to 75%, an automatically controlled light-and-darkness cycle of 12 hours and free access to feed (purchased from Agri Brands Purina Korea, Inc.) and water. The mice were housed and maintained in accordance with the Laboratory Animal Care Standards of the Institutional Animal Care and Use Committee (IACUC). After about one week of stabilization, mice weighing 18 to 23 g were used in the experiment.\nTo 100 mg of Mycobacterium tuberculosis H37RA (killed and desiccated; Difco, 231141, USA) which had been well triturated in mortar, was mixed 10 ml of Incomplete Freund's adjuvant (IFA; Difco, 263910, USA) to prepare 10 mg/ml of Complete Freund's adjuvant (CFA) storage solution, followed by refrigeration at 4° C. Myelin oligodendrocyte glycoprotein (MOG35-55; Peptron, Korea) was diluted with PBS (phosphate-buffered saline; Gibco, 10010, USA) to a final concentration of 2 mg/ml and stored at −20° C. (MOG35-55 storage solution).\n50 μg of PTX (pertussis toxin, PTX; Sigma, P7208, USA) was dissolved in 500 μl of PBS to prepare 100 μg/ml of pertussis toxin (PTX) storage solution, followed by […] at 4° C. In the experiment, the PTX storage solution was diluted 50 times with PBS and used.\nOn the first day of the experiment (Day-1), the EAE-inducing sample solution was administered to mice by subcutaneous injection at 200 μl per mouse. On the same day (Day-1) and two days later (Day-3), 200 μl of PTX solution was intraperitoneally administered to mice twice.\nThe EAE clinical score is as follows.\nAll data were expressed as mean±SEM. The EAE clinical scores in the group treated with the test compound were compared to those in the negative control vehicle group by date. Statistical analysis was performed using GraphPad Prism (ver. 4.0) program, and the differences between the two groups were analyzed by Student's t-test."}, "retinal ganglion cells": {"tested_on": "retinal ganglion cells", "assay": "Number of retinal ganglion cells per unit area in retinal whole mounts (Brn3a, RBPMS staining) in the EAE model", "assay_type": "in vivo, female C57BL/6 mice", "protocol": "as §1, §2\nThe test compound was dissolved in distilled water containing 30% polyethylene glycol 400 (PEG 400) and treated with an ultrasonic sonicator for 30 minutes. The dissolved compound (20 mg/kg or 30 mg/kg) or vehicle was injected into the peritoneum once daily from the 12th day after EAE induction.\nWhen the experiment was terminated or when the time of sacrifice for humanitarian purposes was reached, the mice were sacrificed by cardiac perfusion using a tissue fixative, and the eye and optic nerve were removed for further analysis.\nThe retinal whole mount samples were extracted from both eyes and stained with antibodies of RBPMS (RNA binding protein with multiple splicing) and Brn3a (brain-specific homeobox/POU domain protein 3A) which are retinal ganglion cell markers, followed by analyzation in a stereological manner (Stereo Investigator, MicroBrightfield, VT, USA).\nas §3"}}, "note": "“And” between values parts separate entries of the source, which are not always exact repeats. Equal values may be shown once."}
{"smiles": "NC(=O)O[C@@H](Cn1ncnn1)c1ccccc1Cl", "note": "[Test compound]", "values": [{"measurement": "Pattern retinal conduction amplitude (pERG amplitude), Mean ± SEM", "setting": "[1]; 20 mg/kg i.p. once daily from 12th day after EAE induction", "value": 7.803}, {"measurement": "Pattern retinal conduction amplitude compared to the baseline", "setting": "[1]; 20 mg/kg or 30 mg/kg, baseline measured two days before EAE induction", "value": "no significant difference"}, {"measurement": "Pattern retinal conduction amplitude (pERG amplitude), Mean ± SEM", "setting": "[1]; 30 mg/kg i.p. once daily from 12th day after EAE induction", "value": 7.378}, {"measurement": "EAE clinical score", "setting": "[2]; Day-1~Day-9 (before dosing)", "value": "0.0 ± 0.0"}, {"measurement": "EAE clinical score", "setting": "[2]; Day-10 (before dosing)", "value": "0.5 ± 0.8"}, {"measurement": "EAE clinical score", "setting": "[2]; Day-11, 10 ml/kg orally once a day from Day-11", "value": "0.8 ± 1.0"}, {"measurement": "EAE clinical score", "setting": "[2]; Day-12, 10 ml/kg orally once a day from Day-11", "value": "1.2 ± 1.1"}, {"measurement": "EAE clinical score", "setting": "[2]; Day-13, 10 ml/kg orally once a day from Day-11", "value": "1.3 ± 0.7"}, {"measurement": "EAE clinical score", "setting": "[2]; Day-14, 10 ml/kg orally once a day from Day-11", "value": "2.0 ± 0.6"}, {"measurement": "EAE clinical score", "setting": "[2]; Day-15, 10 ml/kg orally once a day from Day-11", "value": "1.9 ± 0.5"}, {"measurement": "EAE clinical score", "setting": "[2]; Day-16, 10 ml/kg orally once a day from Day-11", "value": "1.9 ± 0.6"}, {"measurement": "EAE clinical score", "setting": "[2]; Day-17, 10 ml/kg orally once a day from Day-11", "value": "2.1 ± 0.6"}, {"measurement": "EAE clinical score", "setting": "[2]; Day-17, 10 ml/kg orally once a day from Day-11, listed as test compound", "value": "2.1±0.6"}, {"measurement": "EAE clinical score", "setting": "[2]; Day-18, 10 ml/kg orally once a day from Day-11", "value": "1.8 ± 0.5"}, {"measurement": "EAE clinical score", "setting": "[2]; Day-19, 10 ml/kg orally once a day from Day-11, p < 0.05 vs. vehicle", "value": "1.7 ± 0.6"}, {"measurement": "Effect on EAE clinical symptoms compared to the vehicle group", "setting": "[2]; Day-19 to Day-22, orally once a day from Day-11", "value": "significant inhibition of EAE clinical symptoms"}, {"measurement": "EAE clinical score", "setting": "[2]; Day-20, 10 ml/kg orally once a day from Day-11, p < 0.05 vs. vehicle", "value": "1.4 ± 0.5"}, {"measurement": "EAE clinical score", "setting": "[2]; Day-21, 10 ml/kg orally once a day from Day-11, p < 0.01 vs. vehicle", "value": "1.3 ± 0.4"}, {"measurement": "EAE clinical score", "setting": "[2]; Day-22, 10 ml/kg orally once a day from Day-11, p < 0.01 vs. vehicle", "value": "1.1 ± 0.5"}, {"measurement": "Number of retinal ganglion cells per unit area, Brn3a (individual values)", "setting": "retinal ganglion cells; 20 mg/kg i.p. once daily from 12th day after EAE induction, Brn3a marker", "value": "2675 and 1751 and 1443 and 2139 and 720 and 2221 and 1859 and 2489 and 1674 and 2035 and 2328 and 1389 and 1919"}, {"measurement": "Number of retinal ganglion cells per unit area, Brn3a, Mean ± SEM", "setting": "retinal ganglion cells; 20 mg/kg i.p. once daily from 12th day after EAE induction, Brn3a marker, **p < 0.01 vs. vehicle", "value": 1895}, {"measurement": "Number of retinal ganglion cells per unit area, RBPMS (individual values)", "setting": "retinal ganglion cells; 20 mg/kg i.p. once daily from 12th day after EAE induction, RBPMS marker", "value": "3005 and 2251 and 1778 and 2976 and 1781 and 2297 and 2479.9735 and 2722 and 2362 and 2485.7761 and 2784.6808 and 2292 and 2567"}, {"measurement": "Number of retinal ganglion cells per unit area, RBPMS, Mean ± SEM", "setting": "retinal ganglion cells; 20 mg/kg i.p. once daily from 12th day after EAE induction, RBPMS marker, **p < 0.01 vs. vehicle", "value": 2445}, {"measurement": "Number of retinal ganglion cells per unit area compared to the vehicle group", "setting": "retinal ganglion cells; 20 mg/kg, EAE-induced animals", "value": "larger number of retinal ganglion cells per unit area"}]}
